Experimental data published in ChEMBL document CHEMBL4145648, “Swinhoeisterols from the South China Sea Sponge Theonella swinhoei” (J Nat Prod, 2018).

Target: Histone acetyltransferase p300 (Homo sapiens, UniProt Q09472)
Assay: Inhibition of human p300 expressed in Escherichia coli incubated for 15 mins followed by [3H]acetyl-CoA/histone addition

Histone acetyltransferase p300, sequence (Q09472 whole entry): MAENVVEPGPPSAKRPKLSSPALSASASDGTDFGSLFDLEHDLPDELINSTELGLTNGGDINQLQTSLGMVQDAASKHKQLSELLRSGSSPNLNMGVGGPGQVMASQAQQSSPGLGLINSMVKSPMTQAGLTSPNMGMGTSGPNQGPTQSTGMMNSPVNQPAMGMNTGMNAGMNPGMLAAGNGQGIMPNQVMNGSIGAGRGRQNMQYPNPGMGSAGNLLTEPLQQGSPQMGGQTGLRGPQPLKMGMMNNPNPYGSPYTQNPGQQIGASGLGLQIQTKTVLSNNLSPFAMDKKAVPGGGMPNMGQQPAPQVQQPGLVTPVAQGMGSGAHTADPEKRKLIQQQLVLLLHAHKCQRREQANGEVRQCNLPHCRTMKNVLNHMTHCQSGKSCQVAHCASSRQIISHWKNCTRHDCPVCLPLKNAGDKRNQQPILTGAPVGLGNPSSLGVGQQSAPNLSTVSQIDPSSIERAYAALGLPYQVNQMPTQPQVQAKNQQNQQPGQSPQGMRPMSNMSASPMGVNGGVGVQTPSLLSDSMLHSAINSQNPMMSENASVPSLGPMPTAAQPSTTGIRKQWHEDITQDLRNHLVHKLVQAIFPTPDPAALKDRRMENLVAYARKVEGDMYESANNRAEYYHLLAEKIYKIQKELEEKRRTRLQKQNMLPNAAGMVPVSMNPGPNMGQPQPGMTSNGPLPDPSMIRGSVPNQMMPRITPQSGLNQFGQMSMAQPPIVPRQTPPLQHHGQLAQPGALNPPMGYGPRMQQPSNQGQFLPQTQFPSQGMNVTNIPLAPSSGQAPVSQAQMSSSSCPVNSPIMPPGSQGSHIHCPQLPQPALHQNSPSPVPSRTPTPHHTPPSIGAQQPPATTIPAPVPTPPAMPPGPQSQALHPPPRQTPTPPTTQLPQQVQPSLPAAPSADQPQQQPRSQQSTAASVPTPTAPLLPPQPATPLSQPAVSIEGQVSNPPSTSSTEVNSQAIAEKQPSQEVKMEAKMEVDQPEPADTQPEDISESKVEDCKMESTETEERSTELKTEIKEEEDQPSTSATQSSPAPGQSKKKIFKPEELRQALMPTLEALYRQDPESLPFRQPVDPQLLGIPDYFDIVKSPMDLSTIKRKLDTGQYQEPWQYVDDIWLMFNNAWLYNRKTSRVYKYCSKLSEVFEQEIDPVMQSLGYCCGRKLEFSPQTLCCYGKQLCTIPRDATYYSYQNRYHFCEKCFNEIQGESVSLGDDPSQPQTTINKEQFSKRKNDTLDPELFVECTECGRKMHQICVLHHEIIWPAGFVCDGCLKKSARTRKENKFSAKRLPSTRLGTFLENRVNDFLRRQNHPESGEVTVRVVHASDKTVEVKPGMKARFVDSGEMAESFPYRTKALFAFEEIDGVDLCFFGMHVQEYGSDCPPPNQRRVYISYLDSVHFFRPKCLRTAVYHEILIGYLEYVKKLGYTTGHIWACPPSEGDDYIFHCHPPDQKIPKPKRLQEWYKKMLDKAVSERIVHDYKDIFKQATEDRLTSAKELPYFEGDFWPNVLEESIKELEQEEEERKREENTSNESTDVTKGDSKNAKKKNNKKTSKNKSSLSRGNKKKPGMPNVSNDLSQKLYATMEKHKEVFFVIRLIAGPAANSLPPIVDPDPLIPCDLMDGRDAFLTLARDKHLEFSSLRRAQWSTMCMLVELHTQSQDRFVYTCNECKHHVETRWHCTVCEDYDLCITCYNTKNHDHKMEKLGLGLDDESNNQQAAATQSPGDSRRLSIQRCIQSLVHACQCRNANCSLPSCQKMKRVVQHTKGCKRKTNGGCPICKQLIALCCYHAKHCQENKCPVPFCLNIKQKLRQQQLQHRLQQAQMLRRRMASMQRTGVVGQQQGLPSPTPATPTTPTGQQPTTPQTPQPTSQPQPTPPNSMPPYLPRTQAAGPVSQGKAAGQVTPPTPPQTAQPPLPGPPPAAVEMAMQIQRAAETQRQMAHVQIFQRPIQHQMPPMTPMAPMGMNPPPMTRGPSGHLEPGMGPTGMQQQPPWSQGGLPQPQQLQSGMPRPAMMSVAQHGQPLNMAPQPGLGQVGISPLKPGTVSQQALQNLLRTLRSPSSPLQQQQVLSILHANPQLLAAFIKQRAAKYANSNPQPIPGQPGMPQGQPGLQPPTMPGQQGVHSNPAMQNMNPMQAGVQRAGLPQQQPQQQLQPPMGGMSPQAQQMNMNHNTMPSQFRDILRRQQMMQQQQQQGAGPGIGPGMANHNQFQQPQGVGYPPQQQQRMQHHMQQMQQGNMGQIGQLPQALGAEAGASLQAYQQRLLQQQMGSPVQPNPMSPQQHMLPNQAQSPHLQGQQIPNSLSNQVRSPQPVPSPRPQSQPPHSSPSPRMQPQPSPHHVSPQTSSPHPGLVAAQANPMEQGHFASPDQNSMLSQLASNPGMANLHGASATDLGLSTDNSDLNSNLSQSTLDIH

Row | Structure (SMILES) | IC50 [µM]
1 | C=C1[C@@H](O)CC[C@@]2(C)[C@H]1CC1=C3[C@@H]2CC[C@]3(C)[C@@H]([C@H](C)CC[C@@H](C)C(C)C)CCC1=O | > 10
2 | C=C1[C@@H](O)CC[C@@]2(C)[C@H]1C[C@H]1C(=O)CC[C@H]([C@H](C)CC[C@@H](C)C(C)C)[C@@]3(C)CC[C@]24O[C@]143 | 8.8
3 | C=C1[C@@H](O)CC[C@]2(C)[C@H]3CC[C@@]4(C)[C@]35O[C@]4([C@H](C)CC[C@@H](C)C(C)C)CCC(=O)[C@@H]5C[C@@H]12 | > 10
4 | C=C1[C@@H](O)CC[C@@]2(C)[C@H]1C[C@]1(O)C(=O)CC[C@H]([C@H](C)CC[C@@H](C)C(C)C)[C@@]3(C)CC[C@]24O[C@@]413 | > 10

Compounds with a lower IC50, results first:

Row | IC50 [µM] | Structure (SMILES)
5 | 3.3 | C=C1[C@@H](O)CC[C@]2(C)C3=C4[C@@H](C[C@@H]12)C(=O)CC[C@H]([C@H](C)CC[C@@H](C)C(C)C)[C@@]4(C)CC3
6 | 0.5 | C=C(C)[C@H](CC=C(C)C)C[C@]12C[C@H](CC=C(C)C)C(C)(C)[C@](CC=C(C)C)(C(=O)C(C(=O)c3ccc(O)c(O)c3)=C1O)C2=O
